US11596639B2, “Substituted indole Mcl-1 inhibitors” (Vanderbilt University, priority 2016, dated 2023)
Read-outs that look alike come from different tables or passages of the source.

How the values were obtained:
Mcl-1 = Mcl-1 (Homo sapiens (Human), UniProt Q07820); assay: TR-FRET binding assay, FITC-Bak peptide and MBP-tagged Mcl-1; settings: read-out: Ki for Inhibition of Mcl-1 by TR-FRET assay
Method: Compounds are diluted in DMSO in a 16-point, semilog serial dilution scheme. […] The plate was mixed and incubated for 3 hours at room temperature. […] TR-FRET signal is plotted and IC50 and Ki values are calculated in the same manner as the fluorescence polarization anisotropy based competition assays.

[1] = tested on: H929 human cancer cell lines; assay: Cellular viability / proliferation (Cell TiterGlo, 72 h); type: cell-based
In short: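 Top dose 50 μM, serially diluted 2-fold, applied one day after seeding (1,000 cells/well, 10% FBS), DMSO below 1%.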

[2] = Homo sapiens, NCI-H929, 72 h, read-out: GI50 on cellular proliferation of H929 human cancer cell lines, H929 cells, 72 h, Cell TiterGlo, 10% FBS

Sequence of Mcl-1 (Q07820 172-327): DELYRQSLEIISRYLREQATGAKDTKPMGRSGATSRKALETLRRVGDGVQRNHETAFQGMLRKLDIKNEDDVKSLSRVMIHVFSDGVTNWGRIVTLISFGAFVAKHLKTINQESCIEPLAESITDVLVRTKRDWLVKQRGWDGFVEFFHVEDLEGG

SMILES | Ki (Mcl-1) [nM] | GI50 [1, 2] [nM] | GI50 ([1]; H929 cells, 72 h, Cell TiterGlo, 10% FBS, read-out: GI50 on cellular proliferation of H929 human cancer cell lines) [nM]
Cc1cc(OCCCc2c3n(c4c(-c5c(C)nn(C)c5C)c(Cl)ccc24)[C@H](C)CN(c2cc(CO)cc4c(C(=O)O)cn(C)c24)C3=O)cc(C)c1Cl [Example 506, (R)-7-(7-Chloro-10-(3-(4-chloro-3,5-dimethylphenoxy)propyl)-4-methyl-1-oxo-6-(1,3,5-trimethyl-1H-pyrazol-4-yl)-3,4-dihydropyrazino[1,2-a]indol-2(1H)-yl)-5-(hydroxymethyl)-1-methyl-1H-indole-3-carboxylic acid] | < 0.2 | 1300 | 
COc1ccc(N2C[C@@H](C)n3c(c(CCCOc4cc(C)c(Cl)c(C)c4)c4ccc(Cl)c(-c5c(C)ncnc5C)c43)C2=O)c2c1cc(C(=O)O)n2Cc1cccc(C)n1 [Example 477, (R)-7-(7-Chloro-10-(3-(4-chloro-3,5-dimethylphenoxy)propyl)-6-(4,6-dimethylpyrimidin-5-yl)-4-methyl-1-oxo-3,4-dihydropyrazino[1,2-a]indol-2(1H)-yl)-4-methoxy-1-((6-methylpyridin-2-yl)methyl)-1H-indole-2-carboxylic acid] | < 0.2 | < 200 | 
Cc1cc(OCCCc2c3n(c4c(-c5c(C)nn(C)c5C)c(Cl)ccc24)[C@H](C)CN(c2cn(Cc4ccncc4)c4ccc(C(=O)O)cc24)C3=O)cc(C)c1Cl [Example 555, (R)-3-(7-chloro-10-(3-(4-chloro-3,5-dimethylphenoxy)propyl)-4-methyl-1-oxo-6-(1,3,5-trimethyl-1H-pyrazol-4-yl)-3,4-dihydropyrazino[1,2-a]indol-2(1H)-yl)-1-(pyridin-4-ylmethyl)-1H-indole-5-carboxylic acid] | 0.26 | 1300 | 
COCCn1cnc(-c2ccc3c(c2)c(N2C[C@@H](C)n4c(c(CCCOc5cc(C)c(Cl)c(C)c5)c5ccc(Cl)c(-c6c(C)nn(C)c6C)c54)C2=O)cn3C)n1 [Example 530, (R)-7-Chloro-10-(3-(4-chloro-3,5-dimethylphenoxy)propyl)-2-(S-(1-(2-methoxyethyl)-1H-1,2,4-triazol-3-yl)-1-methyl-1H-indol-3-yl)-4-methyl-6-(1,3,5-trimethyl-1H-pyrazol-4-yl)-3,4-dihydropyrazino[1,2-a]indol-1(2H)-one] | < 0.2 |  | 230
COCCOc1cc(N2C[C@@H](C)n3c(c(CCCOc4cc(C)c(Cl)c(C)c4)c4ccc(Cl)c(-c5c(C)nn(C)c5C)c43)C2=O)c2c(c1)cc(C(=O)O)n2C [Example 712, (P, R)-7-(7-chloro-10-(3-(4-chloro-3,5-dimethylphenoxy)propyl)-4-methyl-1-oxo-6-(1,3,5-trimethyl-1H-pyrazol-4-yl)-3,4-dihydropyrazino[1,2-a]indol-2(1H)-yl)-5-(2-methoxyethoxy)-1-methyl-1H-indole-2-carboxylic acid] | < 0.2 |  | 
Cc1cc(N2C[C@@H](C)n3c(c(CCCOc4cc(C)c(Cl)c(C)c4)c4ccc(Cl)c(-c5c(C)nn(C)c5C)c43)C2=O)c2c(c1)cc(C(=O)O)n2Cc1ccccn1 [Example 714, (P, R)-7-(7-chloro-10-(3-(4-chloro-3,5-dimethylphenoxy)propyl)-4-methyl-1-oxo-6-(1,3,5-trimethyl-1H-pyrazol-4-yl)-3,4-dihydropyrazino[1,2-a]indol-2(1H)-yl)-5-methyl-1-(pyridin-2-ylmethyl)-1H-indole-2-carboxylic acid] | < 0.2 |  | 
Cc1cc(OCCCc2c3n(c4c(-c5c(C)nn(C)c5C)c(Cl)ccc24)[C@H](C)CN(c2cc(NC(=O)CCN4CCN(C)CC4)cc4c(C(=O)O)cn(C)c24)C3=O)cc(C)c1Cl [Example 551, (R)-7-(7-chloro-10-(3-(4-chloro-3,5-dimethylphenoxy)propyl)-4-methyl-1-oxo-6-(1,3,5-trimethyl-1H-pyrazol-4-yl)-3,4-dihydropyrazino[1,2-a]indol-2(1H)-yl)-1-methyl-5(3-(4-methylpiperazin-1-yl)propanamido)-1H-indole-3-carboxylic acid] | 0.3 |  | 
COCCn1c(C(=O)O)cc2cc(C)cc(N3C[C@@H](C)n4c(c(CCCOc5cc(C)c(Cl)c(C)c5)c5ccc(Cl)c(-c6c(C)nn(C)c6C)c54)C3=O)c21 [Example 709, (M, R)-7-(7-chloro-10-(3-(4-chloro-3,5-dimethylphenoxy)propyl)-4-methyl-1-oxo-6-(1,3,5-trimethyl-1H-pyrazol-4-yl)-3,4-dihydropyrazino[1,2-a]indol-2(1H)-yl)-1-(2-methoxyethyl)-5-methyl-1H-indole-2-carboxylic acid] | < 0.2 |  | 
Cc1cc(OCCCc2c3n(c4c(-c5c(C)nn(C)c5C)c(Cl)ccc24)[C@H](C)CN(c2ccc4ccc(C(=O)O)nc4c2)C3=O)cc(C)c1Cl [Example 666, (R)-7-(7-chloro-10-(3-(4-chloro-3,5-dimethylphenoxy)propyl)-4-methyl-1-oxo-6-(1,3,5-trimethyl-1H-pyrazol-4-yl)-3,4-dihydropyrazino[1,2-a]indol-2(1H)-yl)quinoline-2-carboxylic acid] | 7.2 |  | 
COCCOc1cc(N2C[C@@H](C)n3c(c(CCCOc4cc(C)c(Cl)c(C)c4)c4ccc(Cl)c(-c5c(C)nn(C)c5C)c43)C2=O)c2c(c1)cc(C(=O)O)n2C [Example 711, (M, R)-7-(7-chloro-10-(3-(4-chloro-3,5-dimethylphenoxy)propyl)-4-methyl-1-oxo-6-(1,3,5-trimethyl-1H-pyrazol-4-yl)-3,4-dihydropyrazino[1,2-a]indol-2(1H)-yl)-5-(2-methoxyethoxy)-1-methyl-1H-indole-2-carboxylic acid] | < 0.2 |  | 
Cc1cc(OCCCc2c3n(c4c(-c5c(C)nn(C)c5C)c(Cl)ccc24)[C@H](C)CN(c2cc(N(C)C(=O)CN(C)C)cc4c(C(=O)O)cn(C)c24)C3=O)cc(C)c1Cl [Example 611, (R)-7-(7-chloro-10-(3-(4-chloro-3,5-dimethylphenoxy)propyl)-4-methyl-1-oxo-6-(1,3,5-trimethyl-1H-pyrazol-4-yl)-3,4-dihydropyrazino[1,2-a]indol-2(1H)-yl)-5-(2-(dimethylamino)-N-methylacetamido)-1-methyl-1H-indole-3-carboxylic acid] | 1.1 |  | 
Cc1cc(OCCCc2c3n(c4c(-c5c(C)nn(C)c5C)c(Cl)ccc24)[C@H](C)CN(c2cc(N(C)C(=O)CN4CCCC4)cc4c(C(=O)O)cn(C)c24)C3=O)cc(C)c1Cl [Example 613, (R)-7-(7-chloro-10-(3-(4-chloro-3,5-dimethylphenoxy)propyl)-4-methyl-1-oxo-6-(1,3,5-trimethyl-1H-pyrazol-4-yl)-3,4-dihydropyrazino[1,2-a]indol-2(1H)-yl)-1-methyl-5-(N-methyl-2-(pyrrolidin-1-yl)acetamido)-1H-indole-3-carboxylic acid] | 1.9 |  | 
Cc1cc(OCCCc2c3n(c4c(-c5c(C)nn(C)c5C)c(Cl)ccc24)[C@H](C)CN(c2cc(NC(=O)CN4CCN(C)CC4)cc4c(C(=O)O)cn(C)c24)C3=O)cc(C)c1Cl [Example 554, (R)-7-(7-chloro-10-(3-(4-chloro-3,5-dimethylphenoxy)propyl)-4-methyl-1-oxo-6-(1,3,5-trimethyl-1H-pyrazol-4-yl)-3,4-dihydropyrazino[1,2-a]indol-2(1H)-yl)-1-methyl-5-(2-(4-methylpiperazin-1-yl)acetamido)-1H-indole-3-carboxylic acid] | 0.26 |  | 
Cc1cc(N2C[C@@H](C)n3c(c(CCCOc4cc(C)c(Cl)c(C)c4)c4ccc(Cl)c(-c5c(C)nn(C)c5C)c43)C2=O)c2c(c1)cc(C(=O)O)n2Cc1ccccn1 [Example 713, (M, R)-7-(7-chloro-10-(3-(4-chloro-3,5-dimethylphenoxy)propyl)-4-methyl-1-oxo-6-(1,3,5-trimethyl-1H-pyrazol-4-yl)-3,4-dihydropyrazino[1,2-a]indol-2(1H)-yl)-5-methyl-1-(pyridin-2-ylmethyl)-1H-indole-2-carboxylic acid] | < 0.2 |  | 
Cc1cc(OCCCc2c3n(c4c(-c5c(C)nn(C)c5C)c(Cl)ccc24)[C@H](C)CN(c2cc(CN4CCC(Oc5ccc(Cl)cc5)CC4)cc4c(C(=O)O)cn(C)c24)C3=O)cc(C)c1Cl [Example 547, (R)-7-(7-chloro-10-(3-(4-chloro-3,5-dimethylphenoxy)propyl)-4-methyl-t-oxo-6-(1,3,5-trimethyl-1H-pyrazol-4-yl)-3,4-dihydropyrazino[1,2-a]indol-2(1H)-yl)-5-((4-(4-chlorophenoxy)piperidin-1-yl)methyl)-1-methyl-1H-indole-3-carboxylic acid] | 10 |  | 
Cc1cc(OCCCc2c3n(c4c(-c5c(C)nn(C)c5C)c(Cl)ccc24)[C@H](C)CN(c2cc(N(C)C(=O)CN4CCN(C)CC4)cc4c(C(=O)O)cn(C)c24)C3=O)cc(C)c1Cl [Example 604, (R)-7-(7-chloro-10-(3-(4-chloro-3,5-dimethylphenoxy)propyl)-4-methyl-1-oxo-6-(1,3,5-trimethyl-1H-pyrazol-4-yl)-3,4-dihydropyrazino[1,2-a]indol-2(1H)-yl)-t-methyl-5-(N-methyl-2-(4-methylpiperazin-1-yl)acetamido)-1H-indole-3-carboxylic acid] | 0.73 |  | 
COCCn1c(C(=O)O)cc2cc(C)cc(N3C[C@@H](C)n4c(c(CCCOc5cc(C)c(Cl)c(C)c5)c5ccc(Cl)c(-c6c(C)nn(C)c6C)c54)C3=O)c21 [Example 710, (P, R)-7-(7-chloro-10-(3-(4-chloro-3,5-dimethylphenoxy)propyl)-4-methyl-1-oxo-6-(1,3,5-trimethyl-1H-pyrazol-4-yl)-3,4-dihydropyrazino[1,2-a]indol-2(1H)-yl)-1-(2-methoxyethyl)-5-methyl-1H-indole-2-carboxylic acid] | < 0.2 |  | 
